{"source": "patent US9006185B2", "about": "“Use of cell-permeable peptide inhibitors of the JNK signal transduction pathway for the treatment of various diseases” (Xigen Inflammation Ltd., priority 2008, dated 2015)", "key": {"Jurkat cells": {"system": "Jurkat cells", "assay": "PMA & ionomycin-induced cytokine production in Jurkat cells", "type": "cell-based"}, "murine T cells": {"system": "murine T cells", "assay": "PMA & ionomycin-induced cytokine production in murine T cells", "type": "cell-based"}, "[1]": {"system": "Varicella-Zoster Virus (VZV)", "assay": "VZV-BAC-Luc replication in HFFs, luciferase assay", "type": "cell-based, human", "settings": "24 h, 0.25, 0.5, 1.0 μM tested", "method": "Virus yield was measured by luciferase assay. Samples were in triplicate and the average luminescence is shown; error bars represent the standard deviation of the mean."}, "C57BL/6 mice": {"system": "C57BL/6 mice", "assay": "Bleomycin induced lung fibrosis", "type": "in vivo", "settings": "for histology: inflammatory cells accumulation, fibrotic areas, loss of lung architecture: day 10", "text": "In order to determine the activity of the exemplary all-D retro-inverso IB(s) peptide XG-102 (SEQ ID NO: 11) in the treatment of Chronic Obstructive Pulmonary Disease (COPD) XG-102 (SEQ ID NO: 11) is used in an animal model of Bleomycin induced acute lung inflammation and fibrosis. The protocol of bleomycin induced inflammation and fibrosis has been described before in the literature. The aim of the Experiment was to investigate the effect of XG-102 (SEQ ID NO: 11) by subcutaneous (s.c.) route on neutrophil recruitment in broncho alveolar lavage (BAL) and lung in bleomycin induced inflammation and fibrosis: • at 1 day after a single bleomycin administration (10 mg/kg) • and at day 10 with the development of fibrosis 1) Method and Experimental Approach • The test compound XG-102 (SEQ ID NO: 11) at two doses and vehicle control were given s.c. with a single intranasal administration of bleomycin and mice were analyzed after 1 and 10 days. The animals used in the model were 10 C57BL/6 mice (8 weeks old) per group. The experimental groups included vehicle, 0.001 mg/kg XG-102 (SEQ ID NO: 11) and 0.1 mg/kg XG-102 (SEQ ID NO: 11), and the treatment consisted of repeated sub-cutaneous administration of XG-102 (SEQ ID NO: 11), prior to bleomycin administration then every 3 days. Acute lung inflammation at 24 h was monitored by BAL lavage, cytology, cell counts, and lung myeloperoxidase activity. The effect of the compound was compared with vehicle controls. Lung fibrosis was assessed histologically using hematoxylin and eosin staining at day 10 after the single dose of bleomycin. […] 1.4) Cell Count and Determination • Total cell count was determined in BAL fluid using a Malassez hemocytometer. […] 1.5) TNF Measurement • TNF level in BALF was determined using ELISA assay kits (Mouse DuoSet, R&D system, Minneapolis, USA) according to manufacturer's instructions. […] 1.6) MPO-Measurement • MPO-levels were measured upon administration of XG-102. […]"}, "TC-3 cells": {"system": "TC-3 cells", "assay": "IL-1 induced pancreatic beta-cell death, peptide treatment", "type": "cell-based", "settings": "one single addition 1 μM, 15 days of incubation with IL-1", "method": "Inhibition of IL-1 induced pancreatic beta-cell death by the D-TAT-IB1(s) peptide was analyzed. TC-3 cells were incubated as described above for 30 minutes with one single addition of the indicated peptides (1, μM), then IL-1 (10 ng/ml) was added.\nApoptotic cells were then counted after two days of incubation with IL-1 by use of Propidium Iodide and Hoechst 33342 nuclear staining. A minimum of 1,000 cells were counted for each experiment. Standard Error of the Means (SEM) are indicated, n=5.\nLong term inhibition of IL-1P induced cell-death by the D-TAT-IB1 peptide was also analyzed. TC-3 cells were incubated as above for 30 minutes with one single addition of the indicated peptides (1 μM), then IL-1 (10 ng/ml) was added, followed by addition of the cytokine every two days. Apoptotic cells were then counted after 15 days of incubation with IL-1 by use of propidium iodide and Hoechst 33342 nuclear staining. […] A minimum of 1.000 cells were counted for each experiment."}}, "note": "Entries after “also recorded” stand apart in the source; their conditions may differ."}
{"smiles": "CC(C)C[C@@H](NC(=O)[C@@H](Cc1ccccc1)NC(=O)[C@H]1CCCN1C(=O)[C@@H](CCC(N)=O)NC(=O)[C@H](NC(=O)[C@H]1CCCN1C(=O)[C@@H](CCCNC(=N)N)NC(=O)[C@@H](CO)NC(=O)[C@@H](CCC(N)=O)NC(=O)[C@H](N)CC(=O)O)C(C)C)C(=O)N[C@H](CC(N)=O)C(=O)N[C@H](CC(C)C)C(=O)N[C@@H](C(=O)N[C@@H](C(=O)N1CCC[C@@H]1C(=O)N[C@H](CCCNC(=N)N)C(=O)N[C@H](CCCCN)C(=O)N1CCC[C@@H]1C(=O)N[C@H](CCCNC(=N)N)C(=O)N1CCC[C@@H]1C(=O)N1CCC[C@@H]1C(=O)N[C@H](CCCNC(=N)N)C(=O)N[C@H](CCCNC(=N)N)C(=O)N[C@H](CCCNC(=N)N)C(=O)N[C@H](CCC(N)=O)C(=O)N[C@H](CCCNC(=N)N)C(=O)N[C@H](CCCNC(=N)N)C(=O)N[C@H](CCCCN)C(=O)N[C@H](CCCCN)C(=O)N[C@H](CCCNC(=N)N)C(=O)NCC(=O)O)[C@H](C)O)[C@H](C)O", "note": "[XG-102]", "values": [{"measurement": "PMA & ionomycin-induced IFNg, IL-6 and IL-2 production", "setting": "Jurkat cells", "value": "inhibits cytokine release in both myeloid and lymphoid cell lines"}, {"measurement": "PMA & ionomycin-induced TNFa and IFNg production", "setting": "murine T cells", "value": "also inhibits cytokine release in primary lymphoid and myeloid cells"}, {"measurement": "concentration preventing VZV replication (lowest concentration tested)", "setting": "[1]", "value": "≤ 0.25", "unit": "µM"}, {"measurement": "cytotoxicity at effective concentrations", "setting": "murine macrophages", "value": "non-cytotoxic concentrations"}, {"measurement": "LPS-induced TNFa, IL-6 and Rantes release", "setting": "murine macrophages; murine macrophages", "value": "reducing LPS-induced TNFa, IL-6 and Rantes release in murine macrophages"}, {"measurement": "lymphocyte recruitment and total cells in bronchioalveolar lavage space", "setting": "C57BL/6 mice; 0.001 mg/kg s.c., 3 times in 10 days", "value": "reduced significantly the lymphocyte recruitment and the number of total cells recruited"}, {"measurement": "histology: inflammatory cells accumulation, fibrotic areas, loss of lung architecture", "setting": "C57BL/6 mice; high dose 0.1 mg/kg", "value": "not with the high dose"}, {"measurement": "histology: inflammatory cells accumulation, fibrotic areas, loss of lung architecture", "setting": "C57BL/6 mice; low dose 0.001 mg/kg, 0.001 mg/kg", "value": "A decrease of these parameters was observed; also recorded: attenuates the Bleomycin-induced fibrosis"}, {"measurement": "long term protection from IL-1 induced cell death", "setting": "TC-3 cells", "value": "able to confer long term (15 day) protection"}]}
